Patent US10472341B2, “Bicyclic tetrahydrothiazepine derivatives useful for the treatment of neoplastic and/or infectious diseases” (APEIRON BIOLOGICS AG, priority 2015, dated 2019)
Counter-ions that a name gives are not always drawn. Like-named read-outs stand apart in the source and are kept apart here.

System: aCD3/aCD28-stimulated human PBMCs
Test: Cytokine production in aCD3/aCD28 stimulated human PBMCs
Assay type: cell-based
Details: PBMC, 18 h
Protocol: In order to determine the immune modulatory effect of compounds of compounds of the present invention in human PBMCs, compounds were assessed in the following assay set-up:
Buffy coats were obtained from a local hospital, diluted 3 fold with PBS and layered onto an isotonic Ficoll separating solution d=1.077 g/mL in 50 mL centrifuge tubes. The tubes were centrifuged at 914 g for 25 min at room temperature with the brakes off. The PBMC layer was removed and washed twice with ice-cold PBS. Erythrocytes were lysed by addition of ddH2O and cells were resuspended in X-Vivo15 (Lonza).
1e6 cells/mL were stimulated with soluble anti CD3/CD28 antibodies (1 μg/mL both, clones OKT3 and 28.2) in the presence of described compounds. Cells were incubated for 18 h at 37° C., 5% CO2. Assay plates were centrifuged at 400 g for 5 min and supernatants harvested. Cytokine concentration in tissue culture supernatants were determined with MSD or HTRF kits (MSD and Cisbio), according to manufacturer's instructions.

[1] = enhancement of IFN-γ production, read-out: Activity Class IFN-γ
[2] = enhancement of IL-2 production, read-out: Activity Class IL-2

Compound | EC50 [1] | EC50 [2]
COCCNC(=O)c1ccc2c(c1)N(Cc1ccc(Cl)cc1)C(=O)[C@@H](N)CS2 [Example 20, (3R)-3-amino-5-[(4-chlorophenyl)methyl]-N-(2-methoxyethyl)-4-oxo-2,3,4,5-tetrahydro-1,5-benzothiazepine-7-carboxamide hydrochloride] | 1.58 to 5.01 µM | > 5.01 µM
CC(C)NC(=O)c1ccc2c(c1)N(Cc1ccc(Cl)cc1)C(=O)[C@@H](N)CS2 [Example 61, (3R)-3-amino-5-[(4-chlorophenyl)methyl]-4-oxo-N-(propan-2-yl)-2,3,4,5-tetrahydro-1,5-benzothiazepine-7-carboxamide hydrochloride] | 1.58 to 5.01 µM | > 5.01 µM
CN(C)c1cc2c(cc1C(=O)NCc1ccccc1)N(Cc1ccc(Cl)cc1)C(=O)[C@@H](N)CS2(=O)=O [Example 116, (3R)-3-amino-N-benzyl-5-[(4-chlorophenyl)methyl]-8-(dimethylamino)-1,1,4-trioxo-2,3,4,5-tetrahydro-1λ^6,5-benzothiazepine-7-carboxamide hydrochloride] | 1.58 to 5.01 µM | > 5.01 µM
COc1ccc(CN2C(=O)[C@@H](N)CS(=O)(=O)c3cc(F)c(C(=O)NC4CC4(F)F)cc32)cc1C(F)(F)F (stereo partly drawn) [Example 117, (3R)-3-amino-N-(2,2-difluorocyclopropyl)-8-fluoro-5-{[4-methoxy-3-(trifluoromethyl)phenyl]methyl}-1,1,4-trioxo-2,3,4,5-tetrahydro-1λ^6,5-benzothiazepine-7-carboxamide hydrochloride] | < 1.58 µM | > 5.01 µM
C[C@@H]1[C@H](N)C(=O)N(Cc2ccc(Cl)cc2)c2cc(C(=O)NCCCC(F)(F)F)c(F)cc2S1(=O)=O [Example 118, (2R,3R)-3-amino-5-[(4-chlorophenyl)methyl]-8-fluoro-2-methyl-1,1,4-trioxo-N-(4,4,4-trifluorobutyl)-2,3,4,5-tetrahydro-1λ^6,5-benzothiazepine-7-carboxamide hydrochloride] | < 1.58 µM | 1.58 to 5.01 µM
Cc1nc(-c2ccc(CN3C(=O)[C@@H](N)CS(=O)(=O)c4ccc(C(=O)NCCCC(F)(F)F)cc43)cc2)no1 [Example 119, (3R)-3-amino-5-{[4-(5-methyl-1,2,4-oxadiazol-3-yl)phenyl]methyl}-1,1,4-trioxo-N-(4,4,4-trifluorobutyl)-2,3,4,5-tetrahydro-1λ^6,5-benzothiazepine-7-carboxamide hydrochloride] | 1.58 to 5.01 µM | > 5.01 µM
COCCNC(=O)c1cc2c(cc1F)S(=O)(=O)C[C@H](N)C(=O)N2Cc1ccc(Cl)cc1 [Example 120, (3R)-3-amino-5-[(4-chlorophenyl)methyl]-8-fluoro-N-(2-methoxyethyl)-1,1,4-trioxo-2,3,4,5-tetrahydro-1λ^6,5-benzothiazepine-7-carboxamide hydrochloride] | > 5.01 µM | > 5.01 µM
Cc1nc(-c2ccc(CN3C(=O)[C@@H](N)CS(=O)(=O)c4ccc(C(=O)NC5CC5(F)F)cc43)cc2)no1 (stereo partly drawn) [Example 121, (3R)-3-amino-N-(2,2-difluorocyclopropyl)-5-{[4-(5-methyl-1,2,4-oxadiazol-3-yl)phenyl]methyl}-1,1,4-trioxo-2,3,4,5-tetrahydro-1λ^6,5-benzothiazepine-7-carboxamide hydrochloride] | > 5.01 µM | > 5.01 µM
N[C@H]1CS(=O)(=O)c2cc(F)c(C(=O)NCc3ccc(F)cc3)cc2N(Cc2nnc(C3CC3)s2)C1=O [Example 138, (3R)-3-amino-5-[(5-cyclopropyl-1,3,4-thiadiazol-2-yl)methyl]-8-fluoro-N-[(4-fluorophenyl)methyl]-1,1,4-trioxo-2,3,4,5-tetrahydro-1λ^6,5-benzothiazepine-7-carboxamide hydrochloride] | 1.58 to 5.01 µM | > 5.01 µM
N[C@H]1CS(=O)(=O)c2cc(F)c(C(=O)NC3CCOCC3)cc2N(Cc2ccc(Cl)cc2)C1=O [Example 144, (3R)-3-amino-5-[(4-chlorophenyl)methyl]-8-fluoro-N-(oxan-4-yl)-1,1,4-trioxo-2,3,4,5-tetrahydro-1λ^6,5-benzothiazepine-7-carboxamide] | 1.58 to 5.01 µM | > 5.01 µM
